From BindingDB's records for PubMed 9223586 (Georgetown University, 1997)

Biological target: Nicotinic acetylcholine receptor (Rattus leucopus, UniProt Q62594)
Sequence (Q62594 whole entry): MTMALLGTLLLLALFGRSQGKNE

Work on COc1cc2c3cc1Oc1cc(ccc1O)CC1c4c(cc(OC)c(O)c4Oc4ccc(cc4)CC3[N+](C)(C)CC2)CC[N+]1(C)C (stereo unspecified) [CAS_8063-06-7] yielded a Ki of 3.79 µM.
